# According to patent publication US20220023271A1, “COMPOSITION FOR PREVENTING OR TREATING CELLULAR SENESCENCE-RELATED DISEASES COMPRISING ZOTAROLIMUS AS ACTIVE INGREDIENT” (RESEARCH COOPERATION FOUNDATION OF YEUNGNAM UNIVERSITY, priority 2018, published 2022):
# Columns and labels:
# Assay type in all cases: cell-based
# [1] = system: human dermal fibroblasts (HDF); assay: LDH activity in cell culture solution of human fibroblasts; settings: young and replicative senescent fibroblasts; 4 days
# Method: (§1) Cytotoxicity against young and senescent cells was investigated with a lactate dehydrogenase (LDH) activity kit (Dojindo Molecular Technologies Inc.).
# (§2) Young cells (1×10^3 cells/100 μl/well) or senescent cells (2×10^3 cells/100 μl/well) were dispensed into a 96-well plate, and then cultured overnight in a 37° C., 5% CO2 incubator. Zotarolimus and ABT263 were treated at each concentration, and then incubated for 4 days in a 37° C., 5% CO2 incubator.
# (§3) After transferring the cell culture solution to a 1.5 ml tube, it was centrifuged at 4° C. and 12,000 rpm. 100 μl of the supernatant was dispensed into a 96-well plate, and 100 μl of the LDH measurement solution was added to each well, followed by reaction in a CO2 incubator for 30 minutes.
# (§4) 50 μl of the LDH reaction stop solution was added, and absorbance was measured at 490 nm using a microplate reader. The level of LDH activity was expressed as a relative value based on the absorbance of the control group treated with only DMSO.
# From the above results, in order to confirm whether the decrease in cell growth caused by zotarolimus was due to cell death or simply because the growth stopped, LDH activity was investigated in the cell culture solution.
# [2] = system: human umbilical vascular endothelial cells (HUVEC); assay: SAβG activity staining in senescent vascular endothelial cells; settings: 4 days
# Method: (§5) Each cell was treated in a serum-free culture solution containing 0.5 μM doxorubicin for 4 hours. After washing the cells with a serum-free culture solution, the cells were cultured for 4 days in a culture solution containing 10% FBS, and then cellular aging was confirmed by staining with senescence-associated beta galactosidase (SAβG). After dispensing 2×10^5 cells in a 100 mm culture dish, they were cultured in a 37° C., 5% CO2 incubator. When the cells grew to 80-90% in the culture dish, the cells were removed by treatment with trypsin-EDTA, and the number of cells was measured, and the cell population doubling time (PDT) was measured. By successively subculturing the cells in the same process as described above, replication aging was induced. PDT of young fibroblasts was 36 hours, PDT of replicative senescent fibroblasts was 12 days, PDT of young vascular endothelial cells was 24 hours, and PDT of replicative senescent vascular endothelial cells was 7 days. After each sample was dissolved in DMSO, young cells, replicative senescent cells, and premature senescent cells treated with doxorubicin were treated with 100 nM zotarolimus, 100 nM rapamycin, 100 nM ABT263, respectively. After incubation for 4 days in a 37° C., 5% CO2 incubator, the degree of cell growth was confirmed by CCK-8 analysis, the degree of cellular aging was confirmed by senescence-related beta-galactosidase (SAβG) staining, The cells were washed with 1× phosphate buffer solution, and fixed with a phosphate buffer solution containing 3.7% (v/v) paraformaldehyde. After adding 1 mg/ml 5-bromo-4-chloro-3-indolyl-6-D-galactoside, 40 mM citric acid-sodium phosphate (pH 6.0), 5 mM potassium ferricyanide, 5 mM potassium ferrocyanide, 150 mM NaCl, and 2 mM MgCl2 solution, it was reacted at 37° C. for 18 hours. It was stained with eosin as a control stain. Cells stained blue in the cytoplasm were identified using an optical microscope. […]
# [3] = system: human tubular epithelial cell (HK2); assay: SAβG activity staining in premature senescent HK2 cells; settings: premature senescent HK2 cells by doxorubicin; 100 nM, 4 days
# Method: as §5, with “(SAβG).” for “(SAβG). After dispensing 2×10^5 cells in a 100 mm culture dish, they were cultured in a 37° C., 5% CO2 incubator. When the cells grew to 80-90% in the culture dish, the cells were removed by treatment with trypsin-EDTA, and the number of cells was measured, and the cell population doubling time (PDT) was measured. By successively subculturing the cells in the same process as described above, replication aging was induced. PDT of young fibroblasts was 36 hours, PDT of replicative senescent fibroblasts was 12 days, PDT of young vascular endothelial cells was 24 hours, and PDT of replicative senescent vascular endothelial cells was 7 days.”
# [4] = system: human umbilical vascular endothelial cells (HUVEC); assay: LDH activity in cell culture solution of vascular endothelial cells; settings: young and replicative senescent HUVEC; 4 days
# Method: as §1, §2, §3, §4
# In order to confirm whether the decrease in cell growth caused by zotarolimus as described above was due to cell death, LDH activity was investigated in the cell culture solution.
structure (smiles),measurement,setting,value
CO[C@H]1C[C@@H]2CC[C@@H](C)[C@@](O)(O2)C(=O)C(=O)N2CCCC[C@H]2C(=O)O[C@H]([C@H](C)C[C@@H]2CC[C@H](n3cnnn3)[C@H](OC)C2)CC(=O)[C@H](C)/C=C(\C)[C@@H](O)[C@@H](OC)C(=O)[C@H](C)C[C@H](C)/C=C/C=C/C=C/1C [zotarolimus],LDH activity in the cell culture medium,[1],no difference in LDH activity
same,SAβG activity staining compared with rapamycin,"[2]; premature senescent HUVEC by doxorubicin, 100 nM each",significantly decreased than rapamycin
same,SAβG activity staining,"[2]; premature senescent HUVEC by doxorubicin, 100 nM, vs DMSO-treated group, p<0.01",significantly decreased
same,SAβG activity,"[2]; replicative senescent HUVEC, 100 nM, vs DMSO-treated group and rapamycin-treated group",significantly decreased
same,SAβG staining,[3],decreased
same,LDH activity in the cell culture solution,[4],no difference in LDH activity
